From patent US11629165B2, “Molecules for targeting ribosomes and ribosome-interacting proteins, and uses thereof” (Immagina Biotechnology S.r.l., priority 2018, dated 2023)
One block for each compound: values may come before it.

Key:
Format in all cases: cell-based
MCF7 cells [1] = assay: Puromycin concentration effect on translation, puromycin immunoblot; settings: MCF7, 2 hours
Experimental: FIG. 10. Effect of ribosome inhibitors on 3PB/3PBis binding. (a) Immunoblot of puromycin on total protein extracts from, MCF7 cell treated with increasing concentrations of puromycin (incubation time: 2 hours). CHX+Puro: 350 μM CHX before puromycin treatment (20, 50, 100, 200 μM). 3PBis treatment: (50 μM, 10 min); −, not treatment. (b) On the left, immunoblot with anti-puromycin antibody on total protein extracts from MCF7 cells treat with the indicated drugs. CHX, 350 μM, 5 min; Puromycin, 100 μM, 2 hours; 3PB, 50 μM, 10 min. On the right, CuAAC coupling with Biotin-azide was performed on the cell lysate before total protein extract and SDS-PAGE. The staining of the membrane was performed with Streptavidin-HRP. (c) Sketch that summarize the effect of puromycin treatment on the 3PB-3PBis labelling.
Next, we asked if the labelling is sensitive on puromycin treatment (i.e. dependent on ribosome activity). To do that, we first treated MCF7 cell with puromycin followed by 10 min incubation with 3PB or 3PBis. When used in minimal amounts, puromycin can be incorporated in neosynthesized proteins^25, while high concentrations as well as long incubation times, fully block translation. […] Probe-labeled proteins were coupled to a Cy3-azide reporter tag using CuAAC chemistry, separated by SDS-PAGE and detected by in-gel fluorescence scanning. […]

MCF7 cells [2] = assay: Polysome profiling of probe-treated cells; settings: MCF7, 50 μM, 10 min
Experimental: To better understand the effect of 3Px on the global translation efficiency, we compared the polysome profiles from DMSO and probes-treated cells. By treating MCF7 cells with 50 μM 3PBis or 3PB for 10 min, we observed a 10% reduction of the polysome/80S ratio (calculated by comparing the area under the 80S peak and the combined area under the polysome peaks, FIG. 11a). This effect is independent from the UV-treatment. Incubation of 3PB and 3PBis for longer times (7 hours or 18 hours) results in a depression of the polysome/80S area ratio of >50%, meaning that treatments with 3PBis can depress translation, increasing the 80S pick and reducing heavy polyribosomes (FIG. 11b).
Cells were incubated for 5 minutes with cycloheximide 10 μg/mL at 37° C. to trap the ribosomes on the mRNAs. Cells were then washed with PBS complemented with cycloheximide (10 μg/mL) and scraped directly on the plate with 300 μL of lysis buffer (10 mM NaCl, 10 mM MgCl2, 10 mM Tris-HCl, pH 7.5, 1% Triton X-100, 1% sodium deoxycholate, […], 5 U/mL DNAse I, 200 U/mL RNase inhibitor, and 10 μg/mL cycloheximide, protease inhibitor). Nuclei and cellular debris were removed by three consecutive centrifugations (800 g, 5 min at 4° C.). […] The fraction corresponding to the 40S, 60S and 80S peaks and those corresponding to polysomes were collected monitoring the absorbance at 254 nm. […]

MCF7 cells [3] = assay: Probe labelling after puromycin/CHX treatment, CuAAC Cy3-azide, in-gel fluorescence; settings: MCF7, puromycin 20 and 100 μM 2 hours; 3PB 100 μM or 3PBis 50 μM, 10 min
Experimental: Next, we asked if the labelling is sensitive on puromycin treatment (i.e. dependent on ribosome activity). To do that, we first treated MCF7 cell with puromycin followed by 10 min incubation with 3PB or 3PBis. When used in minimal amounts, puromycin can be incorporated in neosynthesized proteins^25, while high concentrations as well as long incubation times, fully block translation. We first define the concentration that allows puromycin to be incorporated in the nascent peptide chain (i.e. 20 μM), and the range of concentrations that completely depress translation in our biological model (i.e. 50 μM, 100 μM and 200 μM, FIG. 10a). We treat MCF7 cells with both 20 and 100 μM puromycin for 2 hours before adding 3PB (100 μM, 10 min) or 3PBis (50 μM, 10 min). Probe-labeled proteins were coupled to a Cy3-azide reporter tag using CuAAC chemistry, separated by SDS-PAGE and detected by in-gel fluorescence scanning. We observed about 50% reduction of the labelling at 65 kDa after puromycin treatment for both probes (FIG. 5c-d). […] To better understand if the labelling is related to the activity of the ribosomal peptidyl transferase centre (PTC), we pre-treated cells with high concentrations of CHX (350 μM) before adding puromycin (100 μM) to fully block the ribosome catalytic activity^8. […]

28S ribosomal RNA = assay: Labelling of rRNA by 3PBis, Cy3 in-gel fluorescence; settings: MCF7, Cy3 conjugation, total RNA agarose gel
Experimental: FIG. 20. 3PBis-ribosome interaction and labelling of 28S rRNA. MCF7 cells were incubated with 3PBis, fixed and conjugated with Cy3. After extraction, total RNA was run in agarose gel and stained with Syber gold or visualized by in-gel fluorescence scanning.
We investigated the possibility that 3Px molecules directly reacts in the ribosome itself. If 3Px enters the ribosome as puromycin does, it should bind only the large ribosomal subunit, and in particular the rRNA 28S that form the catalytic pocket of the ribosome.

[4] = system: ATP-binding site of GRP78; assay: Competition with VER-155008 on probe labelling; settings: MCF7, VER-155008 100 μM 1 hour before probe
Experimental: In total, 114 protein targets were identified from in-column digestion (called data set 1, n=4), 204 targets from in-gel digestion (called data set 2, n=4) and 1085 from in-bead digestion (called data set 3, n=2, FIG. 12c). The 3PB-beads pull down reflects the “double band” pattern observed with the incubation of 3PB/3PBis in the cell lysate (FIG. 12b). To increase the stringency of our in-beads digestion data set, we performed an enrichment analysis over control Peg-beads (n=2) and we identified 333 proteins setting a cut-off fold-enrichment (FC)≥1.3 between 3PB- and Peg-beads, while 166 proteins are identified with a FC≥2.5. By using the less stringent filter (FC≥1.3) and looking for proteins in common in the three data set, we identified 15 proteins as putative 3PB targets. These factors are known to be involved in tRNAs selection and ribosome elongation (eEF1A, eEF2, eEF4G), ribosome structure (RPL18), protein folding (HSP5A, HSP90AB1, PPIA), metabolism (PHGFH, ENO1, GAPDH, ALB), RNA processing (HNRNPK) and cellular structure (KRT2, KRT10, ACTB). […] After pull-down assay using avidin-magnetic beads (FIG. 12e and FIG. 13a) we observed the presence of the lower HSPA5/GRP78 band, while the upper band (although dominant in the input) was not detected. […]

[5] = system: cellular proteins of HEK-293 and MCF7 cell lines; assay: 3Px probe protein labelling, UV irradiation, anti-puromycin immunoblot
Experimental: For our initial analysis, we treated HEK-293 and MCF7 cell lines in complete culture medium with the 3PB probe (10 μM) for 10 min, followed by irradiation for 5 min on ice (total power: 0.75 J/cm2). We first assessed 3PB labeling of cellular proteins using SDS-PAGE analysis. […] Then, we compared the labelling activity of 3PB, 3PA and 3PBis in HEK293 and MCF7 cells, adding the probes before or after cell lysis. In the latter case, each probe is incubated for 1 h in the cytoplasmic cell extract at 4° C., followed by UV irradiation (0.75 J/cm^2) of the treated lysate. […] Therefore, both 3PB and 3PBis show additional bands with MW=˜50 kDa, when reacted in the cell lysate, with respect to the situation when probes are incubated with growing cells (FIG. 6a). […] This is presumably due to the higher hydrophobicity of the 3PBis probe and a consequent better cell membrane penetration (FIG. 7).
To test 3PN and 3PO activity, we treated MCF7 cells with different concentrations of the two drugs for 10 min, followed by UV-356 irradiation.
Reaction in cell culture: MCF7 or HEK-293 cells were grown to 80% of confluence and treated with CHX (10 μg/mL, 5 min, 37° C.) and then with the probe (10 min, 37 C). Cells were then washed with cold PBS (containing CHX 10 μg/mL), placed on ice and irradiated under a UV lamp (BLX-365, 5×8 W) at 365 nm for 5 min (0.75 J/cm^2) followed by lysis with hypotonic cytoplasmic buffer. Reaction in the cell lysate: HEK-293 or MCF7 cells were treated with CHX (10 μg/mL, 5 min). After hypotonic lysis and precipitation of nuclei and cellular debris by centrifugations at 18000 g, 4° C., 5 min, the supernatant was diluted to A260=1 a.u/μL with 10 mM NaCl, 10 mM MgCl2, 20 μg/mL cycloheximide, 10 mM Hepes, pH 7 in DEPC water, to a final volume of 150 μL. The diluted lysate was then incubated with the reactive probe for 1 hour in a 12-well plate and then UV-irradiated (BLX-365) at 365 nm for 5 min (0.75 J/cm2).
Cell lysates were prepared as described above. Proteins were separated by SDS-polyacrylamide gel electrophoresis and transferred onto PVDF membranes. […]

SMILES: COc1ccc(C[C@H](N)C(=O)N[C@H]2[C@@H](O)[C@H](n3cnc4c(N(C)C)ncnc43)O[C@@H]2CO)cc1 [puromycin, Puromycin]
- concentration that allows puromycin to be incorporated in the nascent peptide chain (MCF7 cells [1]): 20 µM

- reduction of probe labelling by VER-155008 [4]: 1.2 ×
SMILES: C#CCOCCC(=O)NCCOCCOCCNC(=O)N[C@@H](Cc1ccc(OC)cc1)C(=O)N[C@H]1C(OC(=O)OCCC2(C)N=N2)C(n2cnc3c(N(C)C)ncnc32)O[C@@H]1COC(=O)OCCC1(C)N=N1 (some centres unmarked) [3PBis]
- reduction of the polysome/80S ratio (MCF7 cells [2]): 10%
- reduction of the labelling at 65 kDa after puromycin treatment (MCF7 cells [3]): about 50%
- interaction with 28S rRNA (28S ribosomal RNA): directly interact with the 28S ribosomal RNA
- protein labeling signal ([5]; HEK293 and MCF7, probes added before or after cell lysis, UV 0.75 J/cm2): concentration-dependent increases in protein labeling
- functional (binding) activity ([5]; depending on position of UV-active diazirine on ribose): possess the functional activity

SMILES: C#CCOc1cc(C2(C(F)(F)F)N=N2)ccc1C(=O)N[C@@H](Cc1ccc(OC)cc1)C(=O)N[C@H]1[C@@H](O)[C@H](n2cnc3c(N(C)C)ncnc32)O[C@@H]1CO [3PN]
- labelling efficiency after anisomycin and arsenite pre-treatment ([5]; MCF7, FIG. 8a): strong reduction
